According to patent US9345247B2, “Azaindole carboxylic acid amides and azaindole thiocarboxylic acid amides for use as insecticides and acaricides” (BAYER CROPSCIENCE AG, priority 2012, dated 2016):

Experiments:
Boophilus microplus = Boophilus microplus test (BOOPMI injection); format: in vivo; conditions: 20 μg/animal, after 7 days
Description: Boophilus microplus Test (BOOPMI Injection) [table] To produce a suitable active compound formulation, 10 mg of active compound are mixed with 0.5 ml of solvent and the concentrate is diluted with solvent to the desired concentration. The active compound solution is injected into the abdomen (Boophilus microplus), and the animals are transferred into dishes and stored in a climate-controlled room. After 7 days, the efficacy in % is determined. The activity is assessed by laying of fertile eggs. 100% means that none of the ticks has laid any fertile eggs.

Lucilia cuprina larvae = test: Lucilia cuprina test (LUCICU); format: in vivo; conditions: 100 ppm, after 2 days
Description: (§1) Lucilia cuprina Test (LUCICU) [table] To produce a suitable active compound formulation, 10 mg of active compound are mixed with 0.5 ml of dimethyl sulfoxide, and the concentrate is diluted with water to the desired concentration. Vessels containing horse meat treated with the active compound formulation of the desired concentration are populated with about 20 Lucilia cuprina larvae. After 2 days, the kill in % is determined 100% means that all the larvae have been killed; 0% means that none of the larvae have been killed.

[1] = tested on: larvae of the mustard beetle (Phaedon cochleariae); test: Phaedon cochleariae spray test (PHAECO); format: in vivo; conditions: 100 g/ha, spray, after 7 days
Outline: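 Chinese cabbage (Brassica pekinensis) leaf discs sprayed with compound in emulsifier-containing water at the desired concentration, dried, then infested with larvae. Efficacy scored after 7 days as % larvae killed (100% = all dead, 0% = none).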

[2] = log P by HPLC on reversed-phase column (C18), EEC directive 79/831 Annex V.A8; format: physicochemical; conditions: HPLC, acidic range pH 2.7, 43° C.
Outline: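 log P determined per EEC directive 79/831 Annex V.A8 by reversed-phase C18 HPLC at 43 °C, calibrated with unbranched alkan-2-ones (C3–C16) of known log P. Acidic-range determination at pH 2.7 with 0.1% formic acid acetonitrile/water, linear 10–95% acetonitrile gradient.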

[3] = tested on: green peach aphid (Myzus persicae); test: Myzus persicae spray test (MYZUPE); format: in vivo; conditions: 100 g/ha, after 6 days
Description: Myzus persicae-Spray Test (MYZUPE) [table] To produce a suitable active compound formulation, 1 part by weight of active compound is mixed with the stated amounts of solvent and emulsifier, and the concentrate is diluted with emulsifier-containing water to the desired concentration. Discs of Chinese cabbage leaves (Brassica pekinensis) infested by all stages of the green peach aphid (Myzus persicae) are sprayed with an active compound formulation of the desired concentration. After 6 days, the efficacy in % is determined 100% means that all the aphids have been killed; 0% means that none of the aphids have been killed.

[4] = tested on: greenhouse red spider mite (Tetranychus urticae); test: Tetranychus urticae spray test, OP-resistant (TETRUR); format: in vivo; conditions: 100 g/ha, spray, after 6 days
Description: (§2) To produce a suitable active compound formulation, 1 part by weight of active compound is mixed with the stated amounts of solvent and emulsifier, and the concentrate is diluted with emulsifier-containing water to the desired concentration.
Discs of bean leaves (Phaseolus vulgaris) infested by all stages of the greenhouse red spider mite (Tetranychus urticae) are sprayed with an active compound formulation of the desired concentration.
After 6 days, the efficacy in % is determined 100% means that all the spider mites have been killed; 0% means that none of the spider mites have been killed. […]

adult Musca domestica = test: Musca domestica test (MUSCDO); format: in vivo; conditions: 100 ppm, after 2 days
Description: as §1, with “Musca domestica” for “Lucilia cuprina”, “(MUSCDO)” for “(LUCICU)”, “a sponge” for “horse meat”, “adult Musca domestica.” for “about 20 Lucilia cuprina larvae.”, “flies” for “the larvae”, “no flies” for “none of the larvae”

[5] = tested on: caterpillars of the armyworm (Spodoptera frugiperda); test: Spodoptera frugiperda spray test (SPODFR); format: in vivo; conditions: 100 g/ha, spray, after 7 days
Description: Spodoptera frugiperda—Spray Test (SPODFR)
as §2
Leaf discs of maize (Zea mays) are sprayed with an active compound formulation of the desired concentration and, after drying, populated with caterpillars of the armyworm (Spodoptera frugiperda).
After 7 days, the efficacy in % is determined. 100% means that all the caterpillars have been killed; 0% means that no caterpillars have been killed.
To produce a suitable preparation of active compound, 1 part by weight of active compound is mixed with the stated amounts of solvent and emulsifier, and the concentrate is diluted with emulsifier-containing water to the desired concentration.
Leaf discs of maize (Zea mays) are sprayed with an active compound preparation of the desired concentration and, after drying, populated with caterpillars of the armyworm (Spodoptera frugiperda).
After the stated period of time, the effect in % is determined. 100% means that all the caterpillars have been killed; 0% means that no caterpillars have been killed.

Ctenocephalides felis = test: Ctenocephalides felis; oral (CTECFE); format: in vivo; conditions: 100 ppm, oral in cattle blood, after 2 days
Description: Ctenocephalides felis; Oral (CTECFE)
To produce a suitable active compound formulation, 10 mg of active compound are mixed with 0.5 ml of dimethyl sulphoxide. A portion of the concentrate is diluted with citrated cattle blood, and the desired concentration is prepared.
About 20 unfed adult fleas (Ctenocephalides felis) are placed into a chamber which is closed at the top and bottom with gauze. A metal cylinder whose bottom end is closed with parafilm is placed onto the chamber. The cylinder contains the blood/active compound preparation, which can be imbibed by the fleas through the parafilm membrane.
After 2 days, the kill in % is determined 100% means that all fleas have been killed; 0% means that none of the fleas have been killed.

SMILES | efficacy (laying of fertile eggs) (Boophilus microplus) | efficacy (kill) (Lucilia cuprina larvae) | efficacy [1] | log p [2] | efficacy [3] | efficacy [4] | efficacy (kill) (adult Musca domestica) | efficacy [5] | efficacy (kill) (Ctenocephalides felis)
CCn1c(C(=O)NC(c2cccc(C(F)(F)F)c2)C(F)(F)F)cc2cc(C(=O)NC3(C#N)CC3)c(C)nc21 (stereo not drawn) [Compound 6] | 100% | 100% | 100% | 3.53 | 100% | 90% | 100% | 100% | 100%
CCn1c(C(=O)NC(c2ccc(F)c(Cl)c2)C(F)(F)F)cc2cc(C(=O)NC3(C#N)CC3)c(C)nc21 (stereo not drawn) [Compound 10] | 100% | 100% | 100% | 3.51 | 90% | 100% | 100% | 100% | 100%
CCn1c(C(=O)NC(c2ccc(F)c(Cl)c2)C(F)(F)F)cc2cc(C(=O)NC3(C#N)CC3)c(Cl)nc21 (stereo not drawn) [Compound 26] | 100% | 100% | 100% | 3.62 | 100% | 100% | 100% | 100% | 100%
